From US20100137146A1, “Method of Screening Antibacterial Drug Compounds” (Temasek Lifesciences Laboratory, priority 2006, published 2010)

Legend:
MreB = biological target: T1, MreB (Escherichia coli, UniProt P0A9X4); type: cell-based, E. coli
T1 construct: the protein is expressed as a fusion of the full-length bacterial protein with a reporter; expressed in transfected cells; host or cells: Schizosaccharomyces pombe (pREP42-gfp-mreB, nmt42 promoter)
Method: GFP-MreB and FtsZ-GFP were expressed in S. pombe by growing the transformed cultures in the absence of thiamine for 16-20 hours. In the case of fission-yeast temperature-sensitive mutants carrying the GFP-MreB plasmid, cultures were grown in the absence of thiamine for 25-30 hours at 24° C. to allow sufficient expression of the protein. However, prior to the formation of MreB-polymers, the cultures were shifted to restrictive temperatures for a period of 4 hours. The cells were subsequently fixed and stained for actin or tubulin.
The cells were-either fixed with formaldehyde 0.7%) or observed live under a fluorescence microscope. Inhibition of MreB polymerization was achieved by the addition of A22 at a final concentration of 50 μg/ml after 14-16 hours of growth in the absence of thiamine. Cultures were allowed to grow further for a period of 6-8 hours before washing of A22 for time-lapse microscopy. The cells were mounted onto agarose slides, and images were acquired at fixed time intervals. Immunofluorescence was carried out as described in Balasubramanian et al., Meth. Enzymol. 283:494-495, 1997.
Next, whether MreB polymerization in fission yeast was mechanistically related to its polymerization in bacteria was assessed. Studies in bacteria have shown that the small molecule A22 affects the polymerization and/or maintenance of MreB polymers. To test whether A22 prevents polymerization of MreB in fission yeast, cells were treated with A22 prior to the induction of MreB expression. Cells expressing GFP-MreB were treated with the MreB-inhibitor A22 (0 minute time point) at a concentration of 50 μg/ml. The drug then was washed out, and cells were imaged by time-lapse microscopy.
To this end, cells containing preformed MreB bundles were treated with A22.

GFP-MreB E143A = GFP-MreB E143A (Escherichia coli, UniProt P0A9X4, E143A); details: GFP-MreB E143A in wild type fission yeast
From the text: (§1) The MreB ATPase mutants were generated by overlap PCR with the following mutagenic primers: MOH2516 and MOH2517 for E143A and MOH2512 and MOH2513 for D165E along with the above-mentioned end primers (MOH2413 and MOH2414). The GFP-MreB mutants were all cloned into pREP42. All plasmids and mutations were verified by sequencing.
(§2) In bacteria, mutations in the vicinity of the ATP binding pocket of MreB confer A22 resistance. […] Plasmids expressing GFP-MreB E143A (see Garner et al., Science 306:1021-1025, 2004) or D165E (see Kruse et al., EMBO J. 22:5283-5292, 2003) were introduced into wild type fission yeast cells. Cultures were grown in the absence of thiamine to induce the expression of GFP fusion proteins. […] See FIGS. 15A (E143A) and 15B (D165E).

GFP-MreB D165E = GFP-MreB D165E (Escherichia coli, UniProt P0A9X4, D165E); details: GFP-MreB D165E in wild type fission yeast
From the text: as §1, §2

F-actin = biological target: T2, F-actin (Schizosaccharomyces pombe, UniProt P10989); assay: F-actin staining (rhodamine-conjugated phalloidin) in S. pombe cells expressing GFP-MreB; type: cell-based; details: LatA 20 μg/ml for 10 minutes
T2 construct: endogenous in cells; host or cells: Schizosaccharomyces pombe cells expressing GFP-MreB
Method: S. pombe cells expressing GFP-MreB were fixed with methanol and incubated with tubulin (1:100) antibodies. Mouse secondary antibodies conjugated to Alexa-594™ were used at 1:400 for visualizing tubulin. For actin staining, cultures were fixed with formaldehyde (3.7%) and permeablized by using 1% Triton-X 100 in PBS. Rhodamine-conjugated phalloidin was used to visualize S. pombe actin. Latrunculin A (LatA) was added at a final concentration of 20 μg/ml for 10 minutes, and methyl 1-(butylcarbanoyl)-2-benzimidazolecarbamate (MBC) was added at a 25 μg/ml for 20 minutes. For methods, see Karagiannis et al., Mol. Biol. Cell 16:358-371, 2005 and Sawin et al., J. Cell Sci. 117:689-700, 2004, the disclosures of which are hereby incorporated by reference. For time-lapse imaging, LatA and MBC were included simultaneously in the agarose pads. […] Pictures were obtained with a CCD camera (CoolSnapHQ™, Photometrics™). The images were acquired and processed with Meta-morph™.
Studies therefore were performed to determine whether MreB assembly and maintenance was dependent on F-actin and microtubules. Cells were grown in the absence of thiamine to allow expression GFP-MreB. Cultures were then treated with LatA (20 μg/ml) for 10 minutes or methyl 1-butylcarbamoyl-2-benzimidazolecarbamate MBC (25 μg/ml) for 20 minutes to disrupt F-actin and microtubule, respectively. […]

T1 sequence (P0A9X4 whole entry, the tested form may be a part): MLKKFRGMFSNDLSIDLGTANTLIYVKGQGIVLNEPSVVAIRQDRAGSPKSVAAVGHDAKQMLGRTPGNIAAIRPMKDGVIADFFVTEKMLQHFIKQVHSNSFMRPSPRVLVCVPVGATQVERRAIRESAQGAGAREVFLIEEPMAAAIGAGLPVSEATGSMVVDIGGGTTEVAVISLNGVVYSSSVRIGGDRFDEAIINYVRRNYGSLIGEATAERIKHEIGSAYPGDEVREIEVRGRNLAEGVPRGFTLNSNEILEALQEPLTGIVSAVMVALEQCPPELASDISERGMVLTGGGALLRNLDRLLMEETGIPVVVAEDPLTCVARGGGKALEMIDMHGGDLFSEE
GFP-MreB E143A, sequence (P0A9X4 whole entry E143A): as the sequence (P0A9X4 whole entry, the tested form may be a part) above, with E143A counted along it
GFP-MreB D165E, sequence (P0A9X4 whole entry D165E): as the sequence (P0A9X4 whole entry, the tested form may be a part) above, with D165E counted along it

N=C(N)SCc1ccc(Cl)c(Cl)c1 [A22]
MreB polymerization in fission yeast (MreB; A22 50 μg/ml, S. pombe cells expressing GFP-MreB, 0 minute time point before washout): did not exhibit MreB polymers
Reversibility of the effect on MreB polymerization (MreB; after removal of A22 (50 μg/ml), MreB filaments re-established at 20 minutes): reversible
Severing and/or disassembly of preformed MreB bundles (MreB; cells with prominent GFP-MreB bundles cultured 1 hour with A22): pre-existing bundles were unaffected
Structures assembled by MreB ATPase mutant, sensitivity to A22 (GFP-MreB E143A): assembled similar structures both in the presence and absence of A22
Structures assembled by MreB ATPase mutant, sensitivity to A22 (GFP-MreB D165E): assembled similar structures both in the presence and absence of A22

C/C1=C/C(=O)O[C@@H]2C[C@@H](CC[C@H](C)/C=C\C=C\CC1)O[C@@](O)([C@@H]1CSC(=O)N1)C2 [LatA, Latrunculin A]
Maintenance of MreB bundles (MreB; LatA 20 μg/ml for 10 minutes): remained unperturbed
MreB nucleation and assembly after A22 washout (MreB; simultaneous presence of LatA (20 μg/ml) and MBC (25 μg/ml) in agarose pads): MreB nucleated and assembled into polymers
Effect on average growth rate of MreB bundles (MreB; simultaneous presence of LatA and MBC, rate without them 0.46±0.03 μm/min (n=44)): did not vary significantly
Disruption of F-actin (F-actin): completely disassembled
